US12281149B2, “Modulators of G-protein coupled receptors” (priority 2021, dated 2025)
*1 amine or outer side, *2 acyl side, *3 side chain or, on linkers, in order; H or OH if unused. Where a SMILES comes first, the peptide text is derived from it. Side-chain parts run from the residue outwards. [ ]: non-standard residue; d: D form. The star is where a group is joined. Isobutyryl(2-(3-CN-5-F-Ph)) = CC(C)(C(=O)*)c1cc(F)cc(C#N)c1; β2hLeu(2S) = CC(C)C[C@@H](CN[*:1])C(=O)[*:2]; C20 diacid = O=C(O)CCCCCCCCCCCCCCCCCCC(=O)*; βPro(3S) = O=C([C@H]1CCN([*:1])C1)[*:2]; γGlu = O=C(O)[C@H](CCC(=O)[*:2])N[*:1]; X57 = CO[C@@H](CN[*:1])C(=O)[*:2]; X32 = CC(C)(CN[*:1])C(=O)[*:2]; AEEA = NCCOCCOCC(=O)O; Aib = CC(C)(N)C(=O)O; βAla = NCCC(=O)O

Tests used:
Format in all cases: cell-based
[1] = molecular target: T1, GIP receptor (Homo sapiens, UniProt P48546); test: PathHunter β-arrestin assay, GIP receptor; design: host or cells: PathHunter CHO-K1 GIPR β-Arrestin Cell Line; conditions: β-arrestin-2 recruitment, PathHunter CHO-K1 GIPR β-Arrestin Cell Line, 90 min at 37° C.; normalized to GIP; read-out: GIPR β Arrestin EC50
T1 sequence (P48546 22-466): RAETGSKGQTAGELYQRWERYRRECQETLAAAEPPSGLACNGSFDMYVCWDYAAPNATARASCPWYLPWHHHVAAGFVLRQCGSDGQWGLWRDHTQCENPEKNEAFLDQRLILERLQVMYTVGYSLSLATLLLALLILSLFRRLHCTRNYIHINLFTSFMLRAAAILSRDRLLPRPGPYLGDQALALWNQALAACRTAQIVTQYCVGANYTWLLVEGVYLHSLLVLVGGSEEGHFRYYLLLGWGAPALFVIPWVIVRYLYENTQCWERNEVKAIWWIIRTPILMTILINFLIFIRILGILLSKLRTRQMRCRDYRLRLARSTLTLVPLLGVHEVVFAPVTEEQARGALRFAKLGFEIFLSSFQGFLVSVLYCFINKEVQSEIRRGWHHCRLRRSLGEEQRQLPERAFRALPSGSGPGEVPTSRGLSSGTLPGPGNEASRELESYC

[2] = molecular target: T2, GLP-1 receptor (Homo sapiens, UniProt P43220); test: HitHunter cAMP assay, GLP-1 receptor; conditions: for EC50: CHO cells stably expressing human GLP-1 receptor, cAMP accumulation, 30 min, read-out: EC50 GLP-1R; for Emax: CHO cells, cAMP, normalized to maximum signal from GLP-1 (high) and DMSO (low), read-out: Emax GLP-1R
T2 sequence (P43220 24-463): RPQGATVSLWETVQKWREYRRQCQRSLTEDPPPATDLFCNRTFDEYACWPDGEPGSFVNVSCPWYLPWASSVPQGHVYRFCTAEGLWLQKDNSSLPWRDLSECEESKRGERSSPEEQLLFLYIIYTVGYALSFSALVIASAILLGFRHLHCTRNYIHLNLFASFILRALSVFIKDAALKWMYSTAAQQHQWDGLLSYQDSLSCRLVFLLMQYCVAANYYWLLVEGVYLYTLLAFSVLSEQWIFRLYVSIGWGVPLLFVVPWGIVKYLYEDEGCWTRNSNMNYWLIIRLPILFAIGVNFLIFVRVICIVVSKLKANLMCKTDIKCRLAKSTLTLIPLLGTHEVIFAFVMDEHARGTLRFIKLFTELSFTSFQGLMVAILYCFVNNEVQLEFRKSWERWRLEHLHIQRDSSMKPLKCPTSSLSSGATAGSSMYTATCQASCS

[3] = molecular target: T2, GLP-1 receptor; test: PathHunter β-arrestin assay, GLP-1 receptor; design: host or cells: PathHunter CHO-K1 GLP1R β-Arrestin Cell Line; conditions: β-arrestin-2 recruitment, PathHunter CHO-K1 GLP1R β-Arrestin Cell Line, 90 min at 37° C.; normalized to GLP-1; read-out: GLP-1R β Arrestin EC50
[4] = molecular target: T1, GIP receptor; test: HitHunter cAMP assay, GIP receptor; conditions: for EC50: CHO cells stably expressing GIP receptor, cAMP accumulation, 30 min, read-out: EC50 GIP-1R; for Emax: CHO cells, cAMP, normalized to maximum signal from GIP (high) and DMSO (low), read-out: Emax GIP-1R

Structure (SMILES) | EC50 [1] [µM] | EC50 [2] [µM] | Emax [2] [%] | EC50 [3] [µM] | EC50 [4] [µM] | Emax [4] [%]
CC[C@H](C)[C@H](NC(=O)[C@H](CC(C)C)NC(=O)[C@H](Cc1c[nH]c2ccccc12)NC(=O)[C@H](CCC(N)=O)NC(=O)[C@@H](NC(=O)[C@H](Cc1ccccc1)NC(=O)[C@H](C)NC(=O)[C@H](CCCCNC(=O)COCCOCCNC(=O)COCCOCCNC(=O)CC[C@H](NC(=O)CCCCCCCCCCCCCCCCCCC(=O)O)C(=O)O)NC(=O)[C@H](CCC(N)=O)NC(=O)[C@H](C)NC(=O)[C@@H](NC(=O)[C@H](CCCCN)NC(=O)[C@H](CC(=O)O)NC(=O)[C@H](CC(C)C)NC(=O)C(C)(C)NC(=O)[C@@H](NC(=O)[C@H](CO)NC(=O)[C@H](Cc1ccc(O)cc1)NC(=O)[C@H](CC(=O)O)NC(=O)[C@H](CO)NC(=O)[C@@H](NC(=O)[C@H](Cc1ccccc1)NC(=O)[C@@H](NC(=O)CNC(=O)[C@H](CCC(=O)O)NC(=O)C(C)(C)CNC(=O)C(C)(C)c1cc(F)cc(C#N)c1)[C@@H](C)O)[C@@H](C)O)[C@@H](C)CC)[C@@H](C)CC)C(C)C)C(=O)N[C@@H](C)C(=O)NCC(=O)NCC(=O)N1CCC[C@H]1C(=O)N[C@@H](CO)C(=O)N[C@@H](CO)C(=O)NCC(=O)N[C@@H](C)C(=O)N1CCC[C@H]1C(=O)N1CCC[C@H]1C(=O)N1CCC[C@H]1C(=O)N[C@@H](CO)C(N)=O [Compound 192] ({Isobutyryl(2-(3-CN-5-F-Ph))}-[X32]EGTFTSDYSI[Aib]LDKIAQK([AEEA-AEEA-γGlu-C20 diacid])AFVQWLIAGGPSSGAPPPS-NH2) | > 1 | 0.0001 to 0.001 | 101 | > 1 | 0.001 to 0.01 | 104
CC[C@H](C)[C@H](NC(=O)[C@H](CC(C)C)NC(=O)[C@H](Cc1c[nH]c2ccccc12)NC(=O)[C@H](CCC(N)=O)NC(=O)[C@@H](NC(=O)[C@H](Cc1ccccc1)NC(=O)[C@H](C)NC(=O)[C@H](CCCCNC(=O)COCCOCCNC(=O)COCCOCCNC(=O)CC[C@H](NC(=O)CCCCCCCCCCCCCCCCCCC(=O)O)C(=O)O)NC(=O)[C@H](CCC(N)=O)NC(=O)[C@H](C)NC(=O)[C@@H](NC(=O)[C@H](CCCCN)NC(=O)[C@H](CC(=O)O)NC(=O)[C@H](CC(C)C)NC(=O)C(C)(C)NC(=O)[C@@H](NC(=O)[C@H](CO)NC(=O)[C@H](Cc1ccc(O)cc1)NC(=O)[C@H](CC(=O)O)NC(=O)[C@H](CO)NC(=O)[C@@H](NC(=O)[C@H](Cc1ccccc1)NC(=O)[C@@H](NC(=O)CNC(=O)[C@H](CCC(=O)O)NC(=O)[C@H](CNC(=O)C(C)(C)c1cc(F)cc(C#N)c1)CC(C)C)[C@@H](C)O)[C@@H](C)O)[C@@H](C)CC)[C@@H](C)CC)C(C)C)C(=O)N[C@@H](C)C(=O)NCC(=O)NCC(=O)N1CCC[C@H]1C(=O)N[C@@H](CO)C(=O)N[C@@H](CO)C(=O)NCC(=O)N[C@@H](C)C(=O)N1CCC[C@H]1C(=O)N1CCC[C@H]1C(=O)N1CCC[C@H]1C(=O)N[C@@H](CO)C(N)=O [Compound 193] ({Isobutyryl(2-(3-CN-5-F-Ph))}-[β2hLeu(2S)]EGTFTSDYSI[Aib]LDKIAQK([AEEA-AEEA-γGlu-C20 diacid])AFVQWLIAGGPSSGAPPPS-NH2) | > 1 | 0.01 to 0.1 | 77 | > 1 | 0.1 to 1 | 70
CC[C@H](C)[C@H](NC(=O)[C@H](CC(C)C)NC(=O)[C@H](Cc1c[nH]c2ccccc12)NC(=O)[C@H](CCC(N)=O)NC(=O)[C@@H](NC(=O)[C@H](Cc1ccccc1)NC(=O)[C@H](C)NC(=O)[C@H](CCCCNC(=O)COCCOCCNC(=O)COCCOCCNC(=O)CC[C@H](NC(=O)CCCCCCCCCCCCCCCCCCC(=O)O)C(=O)O)NC(=O)[C@H](CCC(N)=O)NC(=O)[C@H](C)NC(=O)[C@@H](NC(=O)[C@H](CCCCN)NC(=O)[C@H](CC(=O)O)NC(=O)[C@H](CC(C)C)NC(=O)C(C)(C)NC(=O)[C@@H](NC(=O)[C@H](CO)NC(=O)[C@H](Cc1ccc(O)cc1)NC(=O)[C@H](CC(=O)O)NC(=O)[C@H](CO)NC(=O)[C@@H](NC(=O)[C@H](Cc1ccccc1)NC(=O)[C@@H](NC(=O)CNC(=O)[C@H](CCC(=O)O)NC(=O)[C@H](CNC(=O)C(C)(C)c1cc(F)cc(C#N)c1)OC)[C@@H](C)O)[C@@H](C)O)[C@@H](C)CC)[C@@H](C)CC)C(C)C)C(=O)N[C@@H](C)C(=O)NCC(=O)NCC(=O)N1CCC[C@H]1C(=O)N[C@@H](CO)C(=O)N[C@@H](CO)C(=O)NCC(=O)N[C@@H](C)C(=O)N1CCC[C@H]1C(=O)N1CCC[C@H]1C(=O)N1CCC[C@H]1C(=O)N[C@@H](CO)C(N)=O [Compound 194] ({Isobutyryl(2-(3-CN-5-F-Ph))}-[X57]EGTFTSDYSI[Aib]LDKIAQK([AEEA-AEEA-γGlu-C20 diacid])AFVQWLIAGGPSSGAPPPS-NH2) | > 1 | 0.01 to 0.1 | 80 | > 1 | 0.01 to 0.1 | 78
CC[C@H](C)[C@H](NC(=O)[C@H](CC(C)C)NC(=O)[C@H](Cc1c[nH]c2ccccc12)NC(=O)[C@H](CCC(N)=O)NC(=O)[C@@H](NC(=O)[C@H](Cc1ccccc1)NC(=O)[C@H](C)NC(=O)[C@H](CCCCNC(=O)COCCOCCNC(=O)COCCOCCNC(=O)CC[C@H](NC(=O)CCCCCCCCCCCCCCCCCCC(=O)O)C(=O)O)NC(=O)[C@H](CCC(N)=O)NC(=O)[C@H](C)NC(=O)[C@@H](NC(=O)[C@H](CCCCN)NC(=O)[C@H](CC(=O)O)NC(=O)[C@H](CC(C)C)NC(=O)C(C)(C)NC(=O)[C@@H](NC(=O)[C@H](CO)NC(=O)[C@H](Cc1ccc(O)cc1)NC(=O)[C@H](CC(=O)O)NC(=O)[C@H](CO)NC(=O)[C@@H](NC(=O)[C@H](Cc1ccccc1)NC(=O)[C@@H](NC(=O)CNC(=O)[C@H](CCC(=O)O)NC(=O)[C@H]1CCN(C(=O)C(C)(C)c2cc(F)cc(C#N)c2)C1)[C@@H](C)O)[C@@H](C)O)[C@@H](C)CC)[C@@H](C)CC)C(C)C)C(=O)N[C@@H](C)C(=O)NCC(=O)NCC(=O)N1CCC[C@H]1C(=O)N[C@@H](CO)C(=O)N[C@@H](CO)C(=O)NCC(=O)N[C@@H](C)C(=O)N1CCC[C@H]1C(=O)N1CCC[C@H]1C(=O)N1CCC[C@H]1C(=O)N[C@@H](CO)C(N)=O [Compound 195] ({Isobutyryl(2-(3-CN-5-F-Ph))}-[βPro(3S)]EGTFTSDYSI[Aib]LDKIAQK([AEEA-AEEA-γGlu-C20 diacid])AFVQWLIAGGPSSGAPPPS-NH2) | > 1 | 0.1 to 1 | 51 | > 1 | 0.1 to 1 | 72
CC[C@H](C)[C@H](NC(=O)[C@H](CC(C)C)NC(=O)[C@H](Cc1c[nH]c2ccccc12)NC(=O)[C@H](CCC(N)=O)NC(=O)[C@@H](NC(=O)[C@H](Cc1ccccc1)NC(=O)[C@H](CCC(=O)O)NC(=O)[C@H](CCCCNC(=O)COCCOCCNC(=O)COCCOCCNC(=O)CC[C@H](NC(=O)CCCCCCCCCCCCCCCCCCC(=O)O)C(=O)O)NC(=O)[C@H](CCC(N)=O)NC(=O)[C@H](C)NC(=O)[C@@H](NC(=O)[C@H](CCCCN)NC(=O)[C@H](CC(=O)O)NC(=O)[C@H](CC(C)C)NC(=O)C(C)(C)NC(=O)[C@@H](NC(=O)[C@H](CO)NC(=O)[C@H](Cc1ccc(O)cc1)NC(=O)[C@H](CC(=O)O)NC(=O)[C@H](CO)NC(=O)[C@@H](NC(=O)[C@H](Cc1ccccc1)NC(=O)[C@@H](NC(=O)CNC(=O)[C@H](CCC(=O)O)NC(=O)CCNC(=O)C(C)(C)c1cc(F)cc(C#N)c1)[C@@H](C)O)[C@@H](C)O)[C@@H](C)CC)[C@@H](C)CC)C(C)C)C(=O)N[C@@H](C)C(=O)NCC(=O)NCC(=O)N1CCC[C@H]1C(=O)N[C@@H](CO)C(=O)N[C@@H](CO)C(=O)NCC(=O)N[C@@H](C)C(=O)N1CCC[C@H]1C(=O)N1CCC[C@H]1C(=O)N1CCC[C@H]1C(=O)N[C@@H](CO)C(N)=O [Compound 196] ({Isobutyryl(2-(3-CN-5-F-Ph))-βAla}-EGTFTSDYSI[Aib]LDKIAQK([AEEA-AEEA-γGlu-C20 diacid])EFVQWLIAGGPSSGAPPPS-NH2) | > 1 | 0.0001 to 0.001 | 95 | > 1 | 0.001 to 0.01 | 100
